Several values for one entry are separate records, joined by “and”; a condition that tells them apart may be missing. Equal entries are not always repeated.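 Assay format: 96-well plates, 48-hour exposure. GI50: concentration for 50% inhibition of growth. TGI: total growth inhibition.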
What was measured:
Assay in all cases: DTP human tumour cell line panel, 48 h
TK-10 renal = tested on: TK-10 renal
SNB-75 CNS = tested on: SNB-75 CNS
M14 melanoma = tested on: M14 melanoma
CAKI-1 renal = tested on: CAKI-1 renal
SNB-19 CNS = tested on: SNB-19 CNS
IGROV1 ovarian = tested on: IGROV1 ovarian
KM12 colon = tested on: KM12 colon
OVCAR-8 ovarian = tested on: OVCAR-8 ovarian
HL-60(TB) leukemia = tested on: HL-60(TB) leukemia
BT-549 breast = tested on: BT-549 breast

Row | SMILES | TGI (TK-10 renal) | TGI (SNB-75 CNS) | TGI (M14 melanoma) | TGI (CAKI-1 renal) | TGI (SNB-19 CNS) | TGI (IGROV1 ovarian) | TGI (KM12 colon) | TGI (OVCAR-8 ovarian) | TGI (HL-60(TB) leukemia) | GI50 (M14 melanoma) | TGI (BT-549 breast) | GI50 (HL-60(TB) leukemia) | GI50 (TK-10 renal) | GI50 (SNB-75 CNS) | GI50 (CAKI-1 renal) | GI50 (SNB-19 CNS) | GI50 (IGROV1 ovarian) | GI50 (KM12 colon) | GI50 (OVCAR-8 ovarian)
1 | CN1C(c2ccccc2)CC(C)(O)CC1c1ccccc1 (stereo unspecified) | > 100 µM | > 100 µM | > 100 µM | > 100 µM | > 100 µM | > 100 µM | > 100 µM | > 100 µM | > 100 µM |  |  |  |  |  |  |  |  |  | 
2 | O=C(CC(=O)N1N=C(n2ccc3ccccc32)CC1c1ccccc1)Nc1ccc(Cl)cc1 (stereo unspecified) | > 100 µM | > 100 µM | > 100 µM |  | > 100 µM | > 100 µM | > 100 µM | > 100 µM | > 100 µM |  |  |  |  |  |  |  |  |  | 
3 | N#CC(C(=O)/C(=N/NC(=O)c1ccccc1O)C(C#N)c1ccc(Br)cc1)c1ccc(Br)cc1 (stereo unspecified) | 39.1 µM | 9.98 µM | 29 µM |  | 24.3 µM | 33.3 µM | 25.5 µM | 19.8 µM |  |  |  |  |  |  |  |  |  |  | 
4 | COC(=O)C(=NNc1ccccc1[N+](=O)[O-])C(=O)OC | > 100 µM |  |  | > 100 µM | > 100 µM | > 100 µM | > 100 µM | > 100 µM | > 100 µM |  |  |  |  |  |  |  |  |  | 
5 | COC(=O)[C@H](Cc1ccccc1)NNC(=O)c1csc([C@@H](C[C@H](C(C)C)N(C)C(=O)[C@@H](NC(=O)[C@H]2CCCCN2C)C2CC2)OC(C)=O)n1 | 25 µM and > 100 µM |  | 25 µM |  | > 100 µM | 25 µM and > 100 µM | 25 µM and > 100 µM | 25 µM and > 100 µM | 0.00596 µM | 0.0112 µM and 0.0025 µM | 0.317 µM and 0.973 µM | 0.0013 µM |  |  |  |  |  |  | 
6 | O=C[C@]12CC=C3OC4OC5(CCCCC5)OC4[C@H]3[C@H]1C(=O)C=CC2=O (stereo partly specified) | 81.3 µM |  | 38.7 µM | 74.6 µM | > 100 µM |  | > 100 µM | 34.6 µM | 2.78 µM |  |  |  |  |  |  |  |  |  | 
7 | [N-]=[N+]=NCCCn1c2c(c3ccc([N+](=O)[O-])cc3c1=O)C(=O)c1cc(I)ccc1-2 | > 100 µM | > 100 µM | 22.4 µM | > 100 µM | > 100 µM | 65.5 µM | > 100 µM | > 100 µM | 26.3 µM | 3.29 µM |  | 3.79 µM | 71.9 µM | 8.63 µM | 9.38 µM | 4.62 µM | 1.95 µM | 18 µM | 11.3 µM
8 | N.N.N.N.N.N#Cc1nn[n-]n1.[Cl-].[Co+3] | > 100 µM | > 100 µM | > 100 µM | > 100 µM | > 100 µM | > 100 µM | > 100 µM | > 100 µM | > 100 µM | > 100 µM |  | > 100 µM | > 100 µM | > 100 µM | > 100 µM | > 100 µM | > 100 µM | > 100 µM | > 100 µM
9 | CCC(C)C(=O)O[C@H]1C(=O)O[C@@H]2C[C@H]3C(C)=CC(=O)[C@@H](O)[C@]3(C)[C@H]3[C@@H](O)[C@H](O)[C@@]4(C)OC[C@]32[C@@H]14 (stereo partly specified) | < 0.0389 µM | < 0.0299 µM | < 0.0216 µM |  | < 0.0291 µM | 0.0889 µM | 0.138 µM | < 0.0302 µM | < 0.01 µM |  |  |  |  |  |  |  |  |  | 
10 | N#CCCN(C1=NN(C(=O)CC(=O)Nc2ccc(Cl)cc2)C(c2ccccc2)C1)c1ccc(Cl)cc1 (stereo unspecified) | > 100 µM | > 100 µM | > 100 µM | > 100 µM | > 100 µM | > 100 µM | > 100 µM | > 100 µM | > 100 µM |  |  |  |  |  |  |  |  |  | 

Source: PubChem BioAssay (NCI)
